The values that follow are results of earlier work, collected in paper PMC11711049 (Cancer Science, 2024).

In data set [1] the test system is cholangiocarcinoma with an FGFR2 gene fusion or other rearrangement. The following applies: cholangiocarcinoma patients; cited from earlier work.
For data set [2], the system named is cholangiocarcinoma. The following applies: first‐line, patients with cholangiocarcinoma; cited from earlier work.

On to `CCN1C(=O)N(c2c(F)c(OC)cc(OC)c2F)Cc2cnc3[nH]c(CN4CCOCC4)cc3c21` [pemigatinib, Pemigatinib], for which, in data set [1], the “median OS” value is given as 21.1 months, the “median PFS” value was 6.9 months and the “response rate / ORR” value is recorded as 35.5%.
For the molecule gemcitabine and cisplatin, in data set [2], the ORR is reported as 26%, the “median OS” value is listed as 11.7 months and the “median PFS” value is listed as 8.0 months.
